Laboratory results: publication PMC11763059, “GENI as an AMPK Activator Binds α and γ Subunits and Improves the Memory Dysfunction of Alzheimer’s Disease Mouse Models via Autophagy and Neuroprotection” (Antioxidants, 2025)

How the values were obtained:
[1] = target: T1, AMPK-s5 (γ subunit- D156A) (Rattus norvegicus, UniProt P54645+P80385, D156A); assay: SPR analysis, AMPK mutant s5; format: binding
T1 construct: His (N); made in house
Experimental: Mammalian AMPK subunits (His-α1, β1, and γ1) were cloned into a pET-3d vector, and protein expression and purification were similar to the literature.
SPR analysis was performed with a Biacore T200 instrument (GE Healthcare). Firstly, the purred His-tagged AMPK containing α1β1γ1 protein was captured onto an activated carboxymethylated 5 (CM5) chip using amine coupling to levels ranging from 4000 RU to 6000 RU. Secondly, GENI was dissolved in PBS-P buffer solution (0.05% (v/v) Tween 20 and PBS), and the concentration of GENI was 64 μM. Thirdly, the solution of GENI was diluted to 32 μM, 16 μM, 8 μM, 4 μM, 2 μM, 1 μM and 0.5 μM with PBS-P buffer solution. The sample was filtered by pumping through a […] membrane. A gradient concentration of GENI was injected at a flow rate of 30 μL/min in a running buffer (0.05% (v/v) Tween 20 and PBS). The data were analyzed with Biacore evaluation software (T200 version 2.0) and fitted to the 1:1 Langmuir binding model, and the kinetic parameters were derived.
The non-covalent interaction between drugs and proteins is an important way to exert drug efficacy, and its mode of action and binding affinity usually determine the utilization and biological activity of drugs. AMPK is a heterotrimer complex consisting of an α subunit containing the kinase domain and two regulatory subunits (β- and γ-). […]

PC12 cells [2] = assay: MDA content assay in PC12 cells; format: cell-based; details: GENI 3 or 10 μM 24 h, 0.8 mM H2O2 1 h
Experimental: To determine ROS levels in PC12 cells, we seeded 5 × 10^4 PC12 cells in each well of a 24-well plate. Cells were treated with RES (10 μM) or GENI (1, 3, and 10 μM) for 24 h, followed by 0.8 mM H2O2 for 1 h. DCFH-DA (2,7-dichlorodihydrofluorescein diacetate, final concentration, 10 μM) was then added to each well and incubated for 30 min. Cells were washed with PBS to remove extracellular DCFH-DA, and intercellular ROS was detected by using a SpectraMax M3 multimode microplate reader (Molecular Devices Corporation, San Jose, CA, USA) at an excitation wavelength of 488 nm and an emission wavelength of 525 nm. Meanwhile, DCF in PC12 cells was observed using a fluorescence microscope (HCS, Thermo Fisher, Science, Waltham, MA, USA). To detect malondialdehyde (MDA) content and total SOD enzymatic activities in PC12 cells, we seeded 2 × 10^6 PC12 cells in 60 mm dishes containing 5 mL of DMEM and cultured the cells for 24 h. PC12 cells were treated with RES (10 μM) or GENI (3 or 10 μM) for 24 h and then treated with 0.8 mM H2O2 for 1 h to determine the MDA content and total superoxide dismutase (SOD) activities. Cells were lysed and centrifuged. […] MDA quantification and total SOD activities were determined using MDA and SOD enzyme activity assay kits (Nanjing Jiancheng Bioengineering Institute, Nanjing, China) following the manufacturer’s instructions.

PC12 cells [3] = assay: RT-PCR analysis of gene expression in PC12 cells; format: cell-based, Rat; details: PC12 cells under H2O2 induction
Experimental: RT-PCR analysis was performed as described in the material and methods section in Supplementary Information.
Supplementary information […]
1.1. Real-time polymerase chain reaction (RT-PCR) analysis
PC12 cells (2 × 106) were seeded in 60 mm dishes and treated with RES (10 μM) or GENI (3 or 10μM) for 24h. Total RNA was extracted with TRIzol Reagent (Beijing Cowin Biotech Company, Beijing, China). RNA content was determined using an Eppendorf Biophotometer Plus (Eppendorf Company, Hamburg, Germany). Transcription was performed using 5 μg of total RNA, Oligo (dT)20 primer and reverse transcriptase (Beijing Cowin Biotech Company, Beijing, China). Transcript levels were quantified by real-time PCR (AB SCIEX, Massachusetts, USA) and SYBR Premix EX Taq™ (Takara, Otsu, Japan). Primers (Sangon Biotech Co. Ltd., Shanghai, China) used in this study are given in Supplementary Table S3. The thermocycling parameters for PC12 cells were as follows: SOD1 and SOD2: 95 ℃ for 2 min, then 40 cycles, 54 ℃ for 35 seconds; Bcl-x1 and Nrf2: 95 ℃ for 2 min, then 40 cycles, 95 ℃ for 15 seconds, 60 ℃ […]
for 15 seconds, 68 ℃ for 20 seconds. All results were normalized to GAPDH RNA levels, and relative mRNA transcript levels were calculated using the ΔΔCt formula. […]
For NO content evaluation, firstly, the NO assay kit was removed, and Griess Reagents I and II were warmed to room temperature. The standard substance was diluted with cell culture solution to 0, 1, 2, 5, 10, 20, 40, 60 and 100 μM. Secondly, 50 μL of standard reagent and the diluted sample were added into a 96-well plate. […]
For IL-6 content evaluation, we prepared samples, standards and biotinylated antibody working […]
15.625 and 0 pg/mL for use, and blank holes were set. The 100 μL sample or standard substance of different concentrations was added to the corresponding hole, and about 50 μL of biotinylated antibody working liquid was added to the sample and standard substance hole. The reaction hole was sealed with sealing plate adhesive paper. The working liquid of the enzyme conjugate was prepared 30 min in advance by incubating at room temperature with a 300 rpm micro-oscillator for 120 min. The sample was placed at room temperature away from light, and the board was washed five times after incubation. In addition to the blank holes, 100 μL of enzyme conjugate working liquid was added to each hole, and the reaction holes were sealed with plate adhesive paper. The board was incubated at room temperature with a 300 rpm micro-oscillator for 60 min and then washed five times. […] About 100 μL of termination solution was added to each hole, and we measured the OD450 value immediately after mixing with a microplate reader (BioTek, California, USA).

T1 sequence (P54645 13-559 limits assumed): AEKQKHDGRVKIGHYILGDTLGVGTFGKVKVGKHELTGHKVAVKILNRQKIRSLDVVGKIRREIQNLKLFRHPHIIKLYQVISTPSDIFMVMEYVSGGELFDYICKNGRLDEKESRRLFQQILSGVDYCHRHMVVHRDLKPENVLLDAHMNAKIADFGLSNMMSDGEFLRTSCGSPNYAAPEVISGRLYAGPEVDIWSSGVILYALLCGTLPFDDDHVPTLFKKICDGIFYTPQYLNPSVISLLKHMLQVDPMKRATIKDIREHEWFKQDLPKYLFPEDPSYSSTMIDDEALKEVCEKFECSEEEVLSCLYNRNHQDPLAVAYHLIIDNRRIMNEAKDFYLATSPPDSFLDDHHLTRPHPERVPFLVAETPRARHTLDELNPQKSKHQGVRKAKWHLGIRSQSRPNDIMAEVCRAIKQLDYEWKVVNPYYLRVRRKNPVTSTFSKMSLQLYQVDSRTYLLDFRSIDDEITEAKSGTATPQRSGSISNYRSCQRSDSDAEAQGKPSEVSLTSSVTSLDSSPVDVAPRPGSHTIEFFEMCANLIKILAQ
T1 sequence (P80386 whole entry partner): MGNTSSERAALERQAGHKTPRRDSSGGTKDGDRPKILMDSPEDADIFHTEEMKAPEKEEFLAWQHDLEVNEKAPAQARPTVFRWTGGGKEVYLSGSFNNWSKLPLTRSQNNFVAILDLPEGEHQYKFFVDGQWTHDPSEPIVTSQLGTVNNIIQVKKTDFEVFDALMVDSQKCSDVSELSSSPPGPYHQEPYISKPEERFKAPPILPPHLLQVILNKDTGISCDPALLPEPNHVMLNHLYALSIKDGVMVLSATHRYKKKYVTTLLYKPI
T1 sequence (P80385 whole entry D156A): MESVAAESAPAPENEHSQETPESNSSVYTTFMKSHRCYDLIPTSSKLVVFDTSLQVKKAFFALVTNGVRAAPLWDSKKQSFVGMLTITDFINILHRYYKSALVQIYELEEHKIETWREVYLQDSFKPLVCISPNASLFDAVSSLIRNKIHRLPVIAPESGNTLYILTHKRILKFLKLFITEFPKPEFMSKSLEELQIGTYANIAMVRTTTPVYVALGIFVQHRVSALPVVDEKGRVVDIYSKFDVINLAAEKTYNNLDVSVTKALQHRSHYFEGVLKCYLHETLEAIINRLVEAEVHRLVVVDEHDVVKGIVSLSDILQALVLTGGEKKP

## CC(C)CCOC(=O)C1=CO[C@@H](O[C@@H]2O[C@H](CO)[C@@H](O)[C@H](O)[C@H]2O)C2C(CO)=CCC12 (stereo partly shown) [GENI, Geniposidic 4-isoamyl ester]
[1]; SPR, association rate, read-out: Ka
  kon: 2140 M⁻¹ s⁻¹
[1]; point mutation of D156
  dose-dependent relationship in SPR: dose-dependent relationship was lost
PC12 cells [2]
  H2O2-induced increase in MDA: significantly reduce
PC12 cells [3]
  abundance of Bcl-x1 mRNA: significantly increased
  abundance of Nrf2 mRNA: significantly increased
PC12 cells [3]; GENI 3 or 10 μM 24 h
  gene expression of SOD1: increased
  gene expression of SOD2: increased
